Compound | melting point [°C]
Cn1nc(-c2c(Cl)cncc2Cl)nc1C1(C)CC1(Cl)Cl (centres unmarked) [Compound 133, 3-(3,5 dichloro-4-pyridyl)-5-(2,2-dichloro-1-methylcyclopropyl)-1-methyl[1,2,4]triazole] | 79 to 83
Cn1nc(-c2nc(F)c(F)c(F)c2F)nc1-c1ccc(Cl)cc1 [Compound 155] | 154 to 156
Cn1nc(-c2nc(Cl)ccc2Cl)nc1-c1ccc(Cl)cc1 [Compound 156] | 98 to 102
Cn1nc(-c2ncc(Cl)cc2Cl)nc1-c1ccc(Cl)cc1 [Compound 158] | 105 to 107
Cc1ccc(-c2nc(-c3ncccc3Cl)nn2C)cc1 [Compound 159] | 113 to 117

Now from value to molecule:

melting point [°C] | Compound
79 to 81 | Cn1nc(-c2c(Cl)cncc2Cl)nc1-c1ccc(Cl)cc1Cl [Compound 7]
130 to 132 | Cn1nc(-c2c(Cl)cncc2Cl)nc1-c1ccncc1 [Compound 113]
142 to 145 | Cc1nc(-c2c(Cl)cncc2Cl)nn1-c1ccc(Cl)cc1 [Example 19, 1-(4-Chlorophenyl)-5-methyl-3-(3,5-dichloro-4-pyridyl)-1H-1,2,4-triazole]

Source: patent US6413992B1, “3-(substituted pyridyl)-1,2,4-triazole compounds” (Dow AgroSciences LLC, priority 1998, dated 2002)
